According to patent publication US20070082920A1, “NAD+-dependent DNA ligase inhibitors” (priority 2005, published 2007):

Key:
[1] = system: Moraxella catterhalis ATCC 25238; test: MIC, broth microdilution (CLSI), M. catarrhalis; type: cell-based
Procedure: (§1) The compounds of Formulas 1-VIII were evaluated as inhibitors of NAD+-dependent DNA ligase inhibitors. Their antimicrobial activity was evaluated against bacteria using the broth microdilution method as described by Clinical Laboratory Standards Institute (formerly NCCLS). Activity was assessed against the following bacterial strains: Staphylococcus aureus ATCC 29213, Streptococcus pneumoniae ATCC 49619, Escherichia coli ATCC 25922, E. coli CGSC 5633 (ToIC mutant), Haemophilus influenzae ATCC 49766, Streptococcus pyogenes ATCC 19615, Moraxella catterhalis ATCC 25238, Enterococcus faecalis ATCC 29212. The lowest concentration of compound which inhibited visual growth of each bacterium, the minimum inhibitory concentration (MIC), was determined.

[2] = system: Streptococcus pyogenes ATCC 19615; test: MIC, broth microdilution (CLSI), S. pyogenes; type: cell-based
Procedure: as §1

[3] = system: Enterococcus faecalis ATCC 29212; test: MIC, broth microdilution (CLSI), E. faecalis; type: cell-based; design: unit not given here
Procedure: as §1

[4] = system: Staphylococcus aureus ATCC 29213; test: MIC, broth microdilution (CLSI), S. aureus; type: cell-based; settings: lowest concentration inhibiting visual growth
Procedure: as §1

[5] = system: Escherichia coli ATCC 25922; test: MIC, broth microdilution (CLSI), E. coli ATCC 25922; type: cell-based; design: unit not given here
Procedure: as §1

[6] = system: Streptococcus pneumoniae ATCC 49619; test: MIC, broth microdilution (CLSI), S. pneumoniae; type: cell-based
Procedure: as §1

[7] = system: Haemophilus influenzae ATCC 49766; test: MIC, broth microdilution (CLSI), H. influenzae; type: cell-based; design: unit not given beside the values
Procedure: as §1

[8] = system: E. coli CGSC 5633 (ToIC mutant); test: MIC, broth microdilution (CLSI), E. coli CGSC 5633; type: cell-based, Escherichia coli; design: unit not given beside the values
Procedure: as §1

[9] = Acute toxicity, Alamar blue cell viability, NIH 3T3; type: cell-based; settings: mouse
Procedure: (§2) Acute toxicity was assessed against two mammalian cell lines, HepG2 (human hepatocyte) and NIH 3T3 (mouse fibroblast). Cell viability was measured by an in vitro assay using Alamar blue. The concentration of compound which inhibited 50% of the cell growth (LC50) was determined.

[10] = Acute toxicity, Alamar blue cell viability, HepG2; type: cell-based; settings: human
Procedure: as §2

[11] = NIH 3T3 cells, Alamar blue, 50% inhibition of cell growth, read-out: Acute Tox LC50 μM/ NIH-3T3
[12] = HepG2 cells, Alamar blue, 50% inhibition of cell growth, read-out: Acute Tox LC50 μM/ HepG2

Compound	MIC M. catarrhalis [1]	MIC S. pyogenes [2]	MIC E. faecalis [3]	MIC S. aureus ATCC 29213 [4]	MIC E. coli ATCC 25922 [5]	MIC S. pneumoniae [6]	MIC H. influenzae [7]	MIC E. coli CGSC 5633 [8]	CC50 [9, 11] [µM]	CC50 [10, 12] [µM]	CC50 [9] [µM]	CC50 [10] [µM]
Cc1cc(NCc2cc(C(F)(F)F)ccc2F)nc2nc(N)nc(N)c12 [III-k]	16	16	0.5	16	32	2	32					
Nc1nc(N)c2c3c(c(NCc4cc(F)cc(F)c4)nc2n1)CCCC3 [VII-d]	16	8	8	32	64	8	32					
Nc1nc(N)c2c3c(c(N4Cc5ccccc5C4)nc2n1)CCCC3 [VII-c]	4	16	1	16	>128	8	>128					
Cc1cc(NCc2cc(F)c(F)c(F)c2)nc2nc([N+](=O)[O-])nc([N+](=O)[O-])c12 [VIII-a]	2	8	16	8	64	16	32	4	22.2	> 30.8		
Cc1cc(NCc2ccc3c(c2)OCO3)nc2nc(N)nc(N)c12 [III-m]	16	8	2	64	64	2	8	0.5				
COc1cc(CN(C)c2nc3nc(N)nc(N)c3c(C)c2Cc2ccccc2)cc(OC)c1 [II-a, 2,4-diamino-5-methyl-6-benzyl-7-[(3,5-dimethoxybenzyl)methylamino]-pyrido[2,3-d]pyrimidine]	4	4	<0.125	4	>128	0.125	>128	<0.125			5.57	12.8
Cc1cc(NCc2cccc(C(F)(F)F)c2F)nc2nc(N)nc(N)c12 [III-g]	4	4	2	16	16	2	32	0.5				
Cc1cc(N2CCCc3ccccc32)nc2nc(N)nc(N)c12 [V-a]	16	32	<0.125	32	64	8	16	<0.125			11.5	27.1
Cc1cc(NCc2ccc(Cl)c(C(F)(F)F)c2)nc2nc(N)nc(N)c12 [III-f]	2	2	1	8	16	1	16	<0.125			8.32	15.2
Cc1c(C(C)C)c(NCc2cc(F)cc(C(F)(F)F)c2)nc2nc(N)nc(N)c12 [II-f]	4	8	2	8	128	8	32					
Cc1cc(NCc2cc(F)cc(C(F)(F)F)c2)nc2nc(N)nc(N)c12 [III-b, 2,4-diamino-5-methyl-7-[(3-fluoro-5-trifluoromethylbenzyl)amino]-pyrido[2,3-d]pyrimidine]	8	4	0.5	16	16	1	32	<0.125			8.34	20.9
Cc1cc(NCc2ccc(C(F)(F)F)cc2F)nc2nc(N)nc(N)c12 [III-h]	4	4	4	16	16	4	16	0.5				
COc1cc(CN(C)c2nc3nc(N)nc(N)c3c(C)c2C2CCCC2)cc(OC)c1 [II-h]	1	1	<0.125	4	32	0.5	4	<0.125			3.26	17.5
COc1cc(CN(C)c2cc(C)c3c(N)nc(N)nc3n2)cc(OC)c1 [IV-c]	1	8	0.5	32	16	0.5	32	<0.125			14.6	37.4
Cc1cc(NCc2ccc(F)cc2C(F)(F)F)nc2nc(N)nc(N)c12 [III-j]	4	4	1	16	32	1	16	0.25				
Cc1cc(NCc2cc(F)cc(C(F)(F)F)c2)nc2nc([N+](=O)[O-])nc([N+](=O)[O-])c12 [VIII-b]	4	4	4	8	64	8	64	2	12.1	> 16.4		
CCCCc1c(NCc2ccc(F)c(F)c2)nc2nc(N)nc(N)c2c1C [II-d]	2	2	2	4	32	1	16	<0.125			5.16	17.2
COc1ccc(CN(C)c2cc(C)c3c(N)nc(N)nc3n2)cc1OC [IV-b]	8			64	64	2	16	0.125			13.2	> 28.2
COc1cc(CN(C)c2nc3nc(N)nc(N)c3c3c2CCCC3)cc(OC)c1 [VII-e]	4	2	<0.1250	32	64	0.5	16	1				
